Here are results for 41 molecules from patent publication US9035059B2, “Nitrogen-containing condensed heterocyclic compound” (TAISHO PHARMACEUTICAL CO., LTD., priority 2011, dated 2015).

Where two headings read alike, the source gives them in different places.

The test addresses human MGAT2 (Homo sapiens (Human), UniProt Q3SYC2). The test is described as follows: Test Example 1: Test of MGAT2 inhibitory action (human MGAT2 enzyme fraction from Sf9 cells, free CoA detected by CPM fluorescence). The test is classed as biochemical. As to conditions: human MGAT2 enzyme fraction expressed in Sf9 insect cells, 0.5 μg/ml, 2-monooleoyl glycerol 0.78 μM, oleoyl-CoA 5.3 μM, room temperature 20 min. The method, then: The MGAT2 inhibitory action of the inventive compound was measured by the methods described in Test Examples as shown below. The MGAT enzyme activity was measured based on the amount of an indicator, free Coenzyme A (CoA) which is generated by the reaction shown below, using a sulfhydryl reactive pigment (7-diethylamino-3-(4-maleimidophenyl)-4-methylcoumarin; hereinafter, sometimes abbreviated as CPM).
A test for MGAT2 inhibitory action of test compounds was conducted in accordance with a partially modified version of the method described in John F. Lockwood et al., Am. J. Physiol. Endocrinol. Metab., 2003, 285, E927.
Bac-to-Bac Baculovirus Expression System (Life Technologies Japan) was used to express human MGAT2 in insect cells (Sf9) (Life Technologies Japan). These cells were sonicated and centrifuged at 100,000 g×1 hr to give a precipitate. The precipitate was used as a human MGAT2 enzyme fraction in this assay.
This test was conducted using a black flat-bottom 96-well plate (Corning). A buffer solution with final concentrations of 5 mM magnesium chloride, 100 mM sucrose and 100 mM Tris-HCl (pH=7.5) was prepared and test compounds prepared in various concentrations using dimethyl sulfoxide were added thereto to give a final dimethyl sulfoxide concentration of 1%. The MGAT2 enzyme fraction was added thereto to give a final concentration of 0.5 μg/ml and phosphatidylcholine, 2-monooleoyl glycerol and oleoyl-CoA were added thereto to give final concentrations of 7.5 μM, 0.78 μM and 5.3 μM, respectively, before starting a reaction. The reaction was performed at room temperature for 20 min.
After 20 min, a CPM-containing solution was added thereto to give a final concentration of 5 μM before stopping the MGAT reaction. After 1 hr, a fluorescence detector (Infinite 200 from Tecan Japan) was used to measure the CPM fluorescence value of each well (excitation 380 nm, emission 460 nm).

Where [1] appears, read: read-out: Activity Value [nM] (IC50, concentration at which 50% of produced free CoA was inhibited).

Sequence of human MGAT2 (Q3SYC2 whole entry): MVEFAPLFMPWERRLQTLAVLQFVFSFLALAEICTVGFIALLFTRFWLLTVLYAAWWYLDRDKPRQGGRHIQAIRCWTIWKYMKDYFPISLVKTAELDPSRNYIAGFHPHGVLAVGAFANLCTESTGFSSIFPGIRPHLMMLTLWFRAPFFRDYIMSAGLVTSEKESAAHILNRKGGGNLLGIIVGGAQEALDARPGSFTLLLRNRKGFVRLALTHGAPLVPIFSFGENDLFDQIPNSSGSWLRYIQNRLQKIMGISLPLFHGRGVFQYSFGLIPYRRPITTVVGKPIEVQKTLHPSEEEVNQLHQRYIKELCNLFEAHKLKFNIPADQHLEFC

With `CC(C)(C)c1ccc(CCN2CCc3cc(S(=O)(=O)Nc4ccc(OCCC5CCCCC5)cc4F)ccc3C2)cc1` [Working Example 5-1, 2-[2-(4-tert-Butylphenyl)ethyl]-N-[4-(2-cyclohexylethoxy)-2-fluorophenyl]-1,2,3,4-tetrahydroisoquinoline-6-sulfonamide], the IC50 under setting [1] was 76 nM.
On the same count and under the same terms, to `CCCCCCCCOc1ccc(NS(=O)(=O)c2ccc3c(c2)CCN(CCc2ccc(C(C)(C)C)cc2)C3)c(F)c1` [17-2] belongs 45 nM; to `CC(C)(C)c1ccc(NC(=O)N2Cc3ccc(S(=O)(=O)Nc4ccc(OCCOc5cccc(C(F)(F)F)c5)cc4F)cc3C2)cc1` [18-21], 59 nM; to `CC(C)(C)c1ccc(NC(=O)N2Cc3ccc(S(=O)(=O)Nc4ccc(OCCCCc5ccccc5)cc4F)cc3C2)cc1` [19-2], 30 nM.
Same read-out and setting: then `CC(C)(C)c1ccc(CCN2CCc3cc(S(=O)(=O)Nc4ccc(CCCCCc5ccccc5)cc4F)ccc3C2)cc1` [Working Example 6-28], with 53 nM.
Take `CC(Cc1ccc(C(C)(C)C)cc1)N1CCc2cc(S(=O)(=O)Nc3ccc(OCCCCCc4ccccc4)cc3F)ccc2C1` (single isomer, unassigned) [Working Example 10-12]: the IC50 (listed as 10-12, read-out: Activity Value [nM] (IC50, concentration at which 50% of produced free CoA was inhibited)) came out at 42 nM.
`CC(Cc1ccc(C(C)(C)C)cc1)N1CCc2cc(S(=O)(=O)Nc3ccc(CCCC4CCCC4)cc3F)ccc2C1` (single isomer, unassigned) [Working Example 10-5]: the IC50 (listed as 10-5, read-out: Activity Value [nM] (IC50, concentration at which 50% of produced free CoA was inhibited)) came to 25 nM.
Take `CCCCCCCc1ccc(NS(=O)(=O)c2ccc3c(c2)CCN(CCc2ccc(C(C)(C)C)cc2)C3)c(F)c1` [Working Example 6-18]: the IC50 under setting [1] came out at 35 nM.
Same read-out and setting: then `CC(C)(C)c1ccc(NC(=O)N2Cc3ccc(S(=O)(=O)Nc4ccc(OCCC5CCCC5)cc4F)cc3C2)cc1` [18-32], with 58 nM.
On the same count and under the same terms, to `CC(C)(C)c1ccc(CN2CCc3cc(S(=O)(=O)Nc4ccc(OCCC5CCOCC5)cc4F)ccc3C2)cc1` [Working Example 6-66] belongs 203 nM; to `CC(C)(C)c1ccc(NC(=O)N2Cc3ccc(S(=O)(=O)Nc4ccc(OCCCOc5ccccc5)cc4F)cc3C2)cc1` [18-23], 92 nM; to `CCCCCCCc1ccc(NS(=O)(=O)c2ccc3c(c2)CCN(Cc2ccc(C(C)(C)C)nc2)C3)c(F)c1` [Working Example 6-32], 31 nM.
Still for that read-out and setting: then `COc1cc(F)ccc1NS(=O)(=O)c1ccc2c(c1)CN(C(=O)Nc1ccc(C(C)(C)C)cc1)C2` [14-9], with 168 nM; and `CC(C)(C)c1ccc(CN2CCc3cc(S(=O)(=O)Nc4ccc(OCCCCCc5ccccc5)cc4F)ccc3C2)cn1` [Working Example 6-34], with 36 nM.
On to `CC(c1ccc(C(C)(C)C)nc1)N1CCc2cc(S(=O)(=O)Nc3ccc(CCCC4CCCC4)cc3F)ccc2C1` (centres unmarked) [23-1, 2-[1-(6-tert-Butylpyridin-3-yl)ethyl]-N-[4-(3-cyclopentylpropyl)-2-fluorophenyl]-1,2,3,4-tetrahydroisoquinoline-6-sulfonamide], for which, under setting [1], the IC50 turned out to be 13 nM.
On the same count and under the same terms, to `CC(C)(C)c1cnc(CN2CCc3cc(S(=O)(=O)Nc4ccc(CCCC5CCCC5)cc4F)ccc3C2)cn1` [Working Example 7-60] belongs 233 nM; to `CCCCCCCCN1CCc2cc(S(=O)(=O)Nc3ccc(OCCCCCC)cc3F)ccc2C1` [Working Example 6-36], 253 nM.
Still for that read-out and setting: then `CCCCCCCCOc1ccc(NS(=O)(=O)c2ccc3c(c2)CCN(Cc2ccc(C(C)(C)C)nc2)C3)c(F)c1` [Working Example 6-33], with 26 nM; and `CC(C)Oc1ccc(CN2CCc3cc(S(=O)(=O)Nc4ccc(CCCC5CCCC5)cc4F)ccc3C2)cc1` [Working Example 7-45], with 199 nM.
In the case of `CCCCCCCCOc1ccc(NS(=O)(=O)c2ccc3c(c2)CCN(C(C)Cc2ccc(C(C)(C)C)cc2)C3)c(F)c1` (centres unmarked) [Working Example 10-10], the IC50 (listed as 10-10, read-out: Activity Value [nM] (IC50, concentration at which 50% of produced free CoA was inhibited)) was determined as 97 nM.
`CC(C)(C)c1ccc(NC(=O)N2Cc3ccc(S(=O)(=O)Nc4ccc(OCCc5ccccc5)cc4F)cc3C2)cc1` [18-14]: under setting [1], the IC50 turned out to be 127 nM.
Same read-out and setting: then `O=S(=O)(Nc1ccc(CCCC2CCCC2)cc1F)c1ccc2c(c1)CCN(CCCC(F)(F)F)C2` [Working Example 7-54], with 162 nM.
On the same count and under the same terms, then `CCCCCCOc1ccc(NS(=O)(=O)c2ccc3c(c2)CCN(Cc2cnc(C(C)(C)C)s2)C3)c(F)c1` [Working Example 7-19], with 195 nM; and `CC(C)(C)c1ccc(CN2CCc3cc(S(=O)(=O)Nc4ccc(OCCCc5ccccc5)cc4F)ccc3C2)cn1` [Working Example 6-26], with 218 nM.
On the same count and under the same terms, to `CCCCCCOc1ccc(NS(=O)(=O)c2ccc3c(c2)CCN(CCc2ccc(C(C)(C)C)nc2)C3)c(F)c1` [Working Example 6-44] belongs 258 nM.
`CCCCCCCc1ccc(NS(=O)(=O)c2ccc3c(c2)CCN(Cc2ccc(C(F)(F)F)nc2)C3)c(F)c1` [Working Example 7-29]: the IC50 under setting [1] worked out at 134 nM.
On the same count and under the same terms, then `CC(C)(C)c1ccc(NC(=O)N2Cc3ccc(S(=O)(=O)Nc4ccc(OCCCCOc5ccccc5)cc4F)cc3C2)cc1` [18-25], with 33 nM; and `O=C(c1ccc(C(F)(F)F)nc1)N1CCc2cc(S(=O)(=O)Nc3ccc(CCCC4CCCC4)cc3F)ccc2C1` [Working Example 1-5], with 154 nM.
On the same count and under the same terms, to `CC(C)(C)c1ccc(CN2CCc3cc(S(=O)(=O)Nc4ccc(CCCC5CCCC5)cc4F)ccc3C2)cn1` [Working Example 6-31] belongs 31 nM; to `CC(C)(C)c1ccc(NC(=O)N2Cc3ccc(S(=O)(=O)Nc4ccc(OCCCCCc5ccccc5)cc4F)cc3C2)cc1` [18-16], 10 nM; to `CC(C)(C)c1ccc(NC(=O)N2Cc3ccc(S(=O)(=O)Nc4ccc(OCCCC5CCCC5)cc4F)cc3C2)cc1` [19-3], 4 nM.
For `CCCCCCOc1ccc(NS(=O)(=O)c2ccc3c(c2)CCN(Cc2ccc(C(C)(C)C)nc2)C3)c(F)c1` [Working Example 6-27], under setting [1], the IC50 came to 135 nM.
`CC(C)(C)c1ccc(CN2CCc3cc(S(=O)(=O)Nc4ccc(OCCCC5CCCCC5)cc4F)ccc3C2)cn1` [Working Example 6-35]: the IC50 under setting [1] came to 65 nM.
With `CC(C)(C)c1ccc(CCN2CCc3cc(S(=O)(=O)Nc4ccc(OCCCc5ccccc5)cc4F)ccc3C2)cc1` [Working Example 8-2], under setting [1], the IC50 turned out to be 173 nM.
Still for that read-out and setting: then `CC(C)(C)c1cnc(CCN2CCc3cc(S(=O)(=O)Nc4ccc(CCCC5CCCC5)cc4F)ccc3C2)nc1` [Working Example 6-64], with 40 nM.
Consider `CC(C)(C)c1ccc(NC(=O)N2CCc3cc(S(=O)(=O)Nc4ccc(OCCC5CCOCC5)cc4F)ccc3C2)cc1` [14-35], for which the IC50 under setting [1] stood at 178 nM.
Same read-out and setting: to `CCCCCCCCOc1ccc(NS(=O)(=O)c2ccc3c(c2)CN(C(=O)Nc2ccc(C(C)(C)C)cc2)C3)c(F)c1` [18-7] belongs 7 nM; to `CC(C)(C)c1ccc(NC(=O)N2Cc3ccc(S(=O)(=O)Nc4ccc(OCCCc5ccccc5)cc4F)cc3C2)cc1` [18-15], 56 nM; to `Cc1nc(-c2ccc(C(F)(F)F)cc2)sc1CN1CCc2cc(S(=O)(=O)Nc3ccc(CCCC4CCCC4)cc3F)ccc2C1` [Working Example 6-65], 51 nM.
On to `CC(C)(C)c1ccc(CCN2CCc3cc(S(=O)(=O)Nc4ccc(CCCC5CCCC5)cc4F)ccc3C2)cn1` [Working Example 6-63], for which, under setting [1], the IC50 turned out to be 62 nM.
In the case of `CC(C)(C)c1ccc(NC(=O)N2Cc3ccc(S(=O)(=O)Nc4ccc(OCCCOc5cccc(Cl)c5)cc4F)cc3C2)cc1` [18-24], the IC50 under setting [1] worked out at 62 nM.
